According to patent US8877696B2, “Cleaning compositions comprising pH-switchable amine surfactants” (The Proctor & Gamble Company, priority 2012, dated 2014):
Values belong to the compound of their own block, whether it stands above or below them.

Assays:
Assay type in all cases: physicochemical
[1] = Critical micelle formation concentration (CMC) by surface tension
Protocol: MEASUREMENT OF THE CRITICAL MICELLE FORMATION CONCENTRATION (CMC): CMC measurements are conducted by a measurement of a surface tension measure as a function of surfactant concentration according to “Surfactant: A Practical Handbook,” K. Robert Lange ed., Hanser Publishers, Munich (1999), pp. 16-17. A 5000-ppm stock solution of the samples is prepared for the analysis on a Kruss K100 Tensiometer (Kruss USA, Charlotte, N.C.). The hardness level and pH are adjusted using corresponding stock solutions of artificial hardness and an NaOH solution. The concentration series is generated automatically with a computer-controlled Dosimat, so that only a surfactant stock solution needs to be prepared. Measurements of surface tension at the air-water interface are carried out at twelve surfactant concentrations. The samples are analyzed at pH 8 and pH 10 for hardness values of 4 gpg and 8 gpg, all measurements being taken at 25.0° C. (±0.5° C.). The CMC data are analyzed by plotting increase in surface tension with respect to dilution by using the “CMC Add-In” of the Lab Desk software from Kruss. The CMC is defined as the surfactant concentration at the breakpoint in the titration curve.

[2] = Micellar lifetime (τ2) by stopped flow conductimetry; details: pH 10.0 (wash), lauric acid system
Protocol: MEASUREMENT OF […] […] (τ2): The micellar stability of a surfactant system is measured by Stopped Flow Conductimetry. The experiment is run at 25.0° C. (±0.5° C.). […] The conductivity of the solution is monitored by a MCS-200 Impedance Spectrometer from Bio-Logic SAS. The τ2 value is defined as the time required to reach a new equilibrium, as determined by curve-fit software BKMCS (version #1) from the Bio-Logic SAS company.

[3] = Suds testing protocol (FOAMSCAN foam / suds / lather volume); details: for Foam Volume: lauric acid 2000 ppm
Protocol: SUDS TESTING PROTOCOL: Foam volume and foam mileage are measured by […] instrument manufactured by […].-Concept, Longessaigne, France. The experiment is run at 25.0° C. (±0.5° C.). […] The cleaning solution contains 25 ppm Technical Body Soil (“TBS”; consisting of 15 wt. % coconut oil, 15 wt. % oleic acid, 15 wt. % paraffin oil, 15 wt. % olive oil, 15 wt. % cottonseed oil, 5 wt. % squalene, 5 wt. % cholesterol, 5 wt % myristic acid, 5 wt. % palmitic acid, and 5 wt. % stearic acid). The cleaning solution is mixed and aged at 60° C. for an hour and is placed into the […] sample chamber, a 1000-mL cylindrical transparent plastic cell. […] The suds volume recorded at the end of stifling is defined as the suds volume generated. The suds mileage is monitored by the time course of the suds height over 10 minutes. The final suds volume at the end of the 10 minutes is reported. […] Hardness is indicated by a calculation where both calcium and magnesium values are reported as mg/L (ppm), in which 2.5[Ca]+4.12[Mg] equals hardness in mg/L. The unit “grains per gallon” (gpg) is defined as 1 grain (64.8 mg) of calcium carbonate per U.S. gallon (3.79 L), or 17.118 ppm. Thus, 1 gpg is equivalent to 17.118 ppm of the Calcium and Magnesium solution at a 3:1 molar ratio of calcium to magnesium.

[4] = Marangoni effect (E′/E″), oscillating drop interfacial rheology; details: pH 10.0 (wash), lauric acid system
Protocol: […] EFFECT (EYE'') MEASUREMENT: The Marangoni Effect quantifies the origin of foam film stability. Dynamic interfacial rheology is measured by a DSA100 (Kruss USA, Charlotte, N.C.) instrument equipped with an Oscillating Drop Module (ODM). The measurement is based on monitoring oscillating pendent drop shape with a CCD camera. The dynamic changes in the surface area and the interfacial tension (air-liquid interface) of the pendent drop from oscilating at equal periods, were recorded. A delay of dynamic interfacial tension change to dynamic surface area change is expressed as a phase angle Φ […]. From the measured phase angle, the Elastic Modulus (E') and Viscous Modulus (E'') are calculated. The Marangoni Effect EYE'' is computed from the relationship, E'/E''=cot Φ. At various surfactant levels, measurements are conducted at pH 10 and 4 gpg hardness in a base matrix of 300 ppm LAS (detergent measurements only) or 2000 ppm fatty acid (bar soap measurements only); 2300 ppm Na2SO4, and 25 ppm TBS (described above). The pH-switchable cosurfactants are added on the top of the base matrix to assess their impact on foam-film stability. The ODM operation is conducted with a period time of 2 seconds and an oscillation amplitude of 0.1 or 0.5.

CMC ([1]; pH 8): 82 ppm
CMC ([1]; pH 10): 75 ppm
SMILES: CCCCCCCCCCCCNCCC[N+](C)(C)C.[Br-] [QUAT, 3-(dodecylamino)-N,N,N-trimethylpropan-1-aminium bromide]

τ2 [2]: 39 ms
Foam Volume ([3]; pH 8.0 (rinse)): 222 mL
Foam Volume ([3]; pH 10.0 (wash)): 80 mL
E′/E″ [4]: 1.5
SMILES: CCCCCCCCCCCC(=O)O [Lauric Acid]

CMC ([1]; pH 8): 48 ppm
CMC ([1]; pH 10): 43 ppm
SMILES: CCCCCCCCCCCC[N+](C)(C)CCO.[Br-] [KDB, dodecyl-(2-hydroxyethyl)-dimethyl ammonium bromide]

Change of Lather Volume (rinse vs wash) ([3]; 4 gpg): −72%
Change of Lather Volume (rinse vs wash) ([3]; 8 gpg): −100%
Change of Lather Volume (rinse vs wash) ([3]; DI Water): −23%
Lather Volume ([3]; pH 8.0 (rinse), 4 gpg): 60 mL
Lather Volume ([3]; pH 8.0 (rinse), 8 gpg): 0 mL
Lather Volume ([3]; pH 8.0 (rinse), 12 gpg): 0 mL
Lather Volume ([3]; pH 8.0 (rinse), 16 gpg): 0 mL
Lather Volume ([3]; pH 8.0 (rinse), DI Water): 170 mL
Lather Volume ([3]; pH 10.0 (wash), 4 gpg): 215 mL
Lather Volume ([3]; pH 10.0 (wash), 8 gpg): 175 mL
Lather Volume ([3]; pH 10.0 (wash), 12 gpg): 0 mL
Lather Volume ([3]; pH 10.0 (wash), 16 gpg): 0 mL
Lather Volume ([3]; pH 10.0 (wash), DI Water): 220 mL
SMILES: CCCCCCCCCCCC(=O)[O-].[Na+] [Sodium Laurate]
